Reference: patent US10519177B2, “Heterocyclic compounds and uses thereof” (Plexxikon Inc., priority 2013, dated 2019)

Key:
BRD4-BD12 (1-477) = BRD4-BD12 (1-477) (Homo sapiens (Human), UniProt O60885); assay: Alphascreen binding assay BRD4-BD12; conditions: BRD4(1 2) H4; read-out: Biochemical activity (IC50 μM) BRD4(1 2) H4
Procedure, shortened: (§1)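 First, compound was preincubated 1 h at room temperature with the His-tagged BRD4 protein (BD1 44-164 or tandem BD12 1-477) and acetylated H4 peptide. Next, donor and acceptor beads were added at 7.5 μg/ml final. After 30 min, AlphaScreen emission was recorded.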

bromodomain = assay: at least one of the bromodomain cell assays of Example 57; assay type: cell-based; conditions: at least one of the bromodomain cell assays described in Example 57; read-out: IC50 in at least one of the bromodomain cell assays
MV-4-11 cells = assay: Oncology cell growth assay MV-4-11 (CellTiter Glo); assay type: cell-based; conditions: Homo sapiens, MV4-11, 72 h; read-out: Cell activity (IC50 μM) MV-4-11 3d-Growth
Procedure, shortened: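 MV-4-11 AML cells (MLL-AF4), 3000 per well, exposed to 8-point 1:3 compound titration from 10 μM top concentration (0.2% DMSO) for 72 h. Viability by CellTiter Glo luminescence, normalized to DMSO controls; pIC50 from four-parameter curve fit.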

BRD4-BD1 (44-164) = BRD4-BD1 (44-164) (Homo sapiens (Human), UniProt O60885); assay: Alphascreen binding assay BRD4-BD1; conditions: BRD4(1) H4; read-out: Biochemical activity (IC50 μM) BRD4(1) H4
Procedure, shortened: as §1

| SMILES | IC50 (BRD4-BD12 (1-477)) [µM] | IC50 (bromodomain) [nM] | IC50 (MV-4-11 cells) [µM] | IC50 (BRD4-BD1 (44-164)) [µM] |
| --- | --- | --- | --- | --- |
| Cc1noc(C)c1-c1cnc2c(-c3cnn(CC(F)(F)F)c3)cn(C(C)c3ccccn3)c2c1 (centres unmarked) [P-0320, 3,5-dimethyl-4-[1-[1-(2-pyridyl)ethyl]-3-[1-(2,2,2-trifluoroethyl)pyrazol-4-yl]pyrrolo[3,2-b]pyridin-6-yl]isoxazole] | < 1 | < 10000 | < 1 | < 1 |
| Cc1noc(C)c1-c1cnc2c(-c3cnn(CC(F)(F)F)c3)cn(Cc3ccccc3)c2c1 [P-0317, 4-[1-benzyl-3-[1-(2,2,2-trifluoroethyl)pyrazol-4-yl]pyrrolo[3,2-b]pyridin-6-yl]-3,5-dimethyl-isoxazole] | < 1 | < 10000 | < 1 | < 1 |
| C#Cc1cn(C(C)c2ccccc2)c2cc(-c3c(C)noc3C)cnc12 (centres unmarked) [P-0289, 4-[3-ethynyl-1-(1-phenylethyl)pyrrolo[3,2-b]pyridin-6-yl]-3,5-dimethyl-isoxazole] | < 1 | < 10000 | < 1 | < 1 |
| Cc1nnn(C)c1-c1cnc2c(-c3cnn(CC(F)(F)F)c3)cn(CC3(F)CCC(F)(F)CC3)c2c1 [P-0372, 6-(3,5-dimethyltriazol-4-yl)-1-[(1,4,4-trifluorocyclohexyl)methyl]-3-[1-(2,2,2-trifluoroethyl)pyrazol-4-yl]pyrrolo[3,2-b]pyridine] | < 1 | < 10000 | < 1 | < 1 |
| Cc1noc(C)c1-c1cnc2c(-c3cnn(C(F)F)c3)cn(C(CC#N)C3CCOCC3)c2c1 (centres unmarked) [P-0314, 3-[3-[1-(difluoromethyl)pyrazol-4-yl]-6-(3,5-dimethylisoxazol-4-yl)pyrrolo[3,2-b]pyridin-1-yl]-3-tetrahydropyran-4-yl-propanenitrile] | < 1 | < 10000 | < 1 | < 1 |
| Cc1noc(C)c1-c1cnc2c(-c3ccc(Cl)cc3)cn(C(C)c3ccccc3)c2c1 (centres unmarked) [P-0269, 4-[3-(4-chlorophenyl)-1-(1-phenylethyl)pyrrolo[3,2-b]pyridin-6-yl]-3,5-dimethyl-isoxazole] | < 1 | < 10000 | 1 to 10 | < 1 |
| Cc1noc(C)c1-c1cnc2c(-c3cnn(CC(F)(F)F)c3)cn(CC3CC(F)(F)C3)c2c1 [P-0305, 4-[1-[(3,3-difluorocyclobutyl)methyl]-3-[1-(2,2,2-trifluoroethyl)pyrazol-4-yl]pyrrolo[3,2-b]pyridin-6-yl]-3,5-dimethyl-isoxazole] | < 1 | < 10000 | < 1 | < 1 |
| Cc1noc(C)c1-c1cnc2c(-c3cnn(C(F)F)c3)cn(Cc3ccccc3)c2c1 [P-0326, 4-[1-benzyl-3-[1-(difluoromethyl)pyrazol-4-yl]pyrrolo[3,2-b]pyridin-6-yl]-3,5-dimethyl-isoxazole] | < 1 | < 10000 | < 1 | < 1 |
| Cc1noc(C)c1-c1cnc2c(C#CCO)cn(C(C)c3ccccc3)c2c1 (centres unmarked) [P-0302, 3-[6-(3,5-dimethylisoxazol-4-yl)-1-(1-phenylethyl)pyrrolo[3,2-b]pyridin-3-yl]prop-2-yn-1-ol] | < 1 | < 10000 | < 1 | < 1 |
| Cc1noc(C)c1-c1cnc2c(-c3cnc(N)cn3)cn(C(C)c3ccccc3)c2c1 (centres unmarked) [P-0279, 5-[6-(3,5-dimethylisoxazol-4-yl)-1-(1-phenylethyl)pyrrolo[3,2-b]pyridin-3-yl]pyrazin-2-amine] | < 1 | < 10000 | < 1 | < 1 |
| Cc1nnn(C)c1-c1cnc2ccn(CC3CCC(F)(F)CC3)c2c1 [P-0291, l-[(4,4-difluorocyclohexyl)methyl]-6-(3,5-dimethyltriazol-4-yl)pyrrolo[3,2-b]pyridine] | 10 to 200 | < 10000 | 1 to 10 | < 1 |
| Cc1noc(C)c1-c1cnc2c(I)cn(C(CC#N)C3CC3)c2c1 (centres unmarked) [P-0309, 3-cyclopropyl-3-[6-(3,5-dimethylisoxazol-4-yl)-3-iodo-pyrrolo[3,2-b]pyridin-1-yl]propanenitrile] | < 1 | < 10000 | < 1 | < 1 |
| Cc1noc(C)c1-c1cnc2c(-c3cnn(C(F)F)c3)cn(CC3CC(F)(F)C3)c2c1 [P-0304] | < 1 | < 10000 | < 1 | < 1 |
| Cc1noc(C)c1-c1cnc2c(-c3cccnc3)cn(C(C)c3ccccc3)c2c1 (centres unmarked) [P-0267] | < 1 | < 10000 | < 1 | < 1 |
| Cc1noc(C)c1-c1cnc2c(-c3ccc(C(=O)O)cc3)cn(CC3CCC(F)(F)CC3)c2c1 [P-0324, 4-[1-[(4,4-difluorocyclohexyl)methyl]-6-(3,5-dimethylisoxazol-4-yl)pyrrolo[3,2-b]pyridin-3-yl]benzoic acid] | < 1 | < 10000 | < 1 | < 1 |
| Cc1noc(C)c1-c1cnc2c(-c3cnn(CC(F)(F)F)c3)cn(CC3(F)CCC(F)(F)CC3)c2c1 [P-0321, 3,5-dimethyl-4-(1-[(1,4,4-trifluorocyclohexyl)methyl]-3-[1-(2,2,2-trifluoroethyl)pyrazol-4-yl]pyrrolo[3,2-b]pyridin-6-yl]isoxazole] | 1 to 10 | < 10000 | < 1 | < 1 |
| Cc1noc(C)c1-c1cnc2c(-c3cnn(CC(C)C)c3)cn(CC3CCC(F)(F)CC3)c2c1 [P-0297, 4-[1-[(4,4-difluorocyclohexyl)methyl]-3-(1-isobutylpyrazol-4-yl)pyrrolo[3,2-b]pyridin-6-yl]-3,5-dimethyl-isoxazole] | < 1 | < 10000 | < 1 | < 1 |
| Cc1noc(C)c1-c1cnc2c(-c3c(C)nn(C)c3C)cn(C(C)c3ccccc3)c2c1 (centres unmarked) [P-0300, 3,5-dimethyl-4-[1-(1-phenylethyl)-3-(1,3,5-trimethylpyrazol-4-yl)pyrrolo[3,2-b]pyridin-6-yl]isoxazole] | < 1 | < 10000 | < 1 | < 1 |
| Cc1noc(C)c1-c1cnc2c(-c3cnn(CC(F)(F)F)c3)cn(C(CC#N)C3CCCC3)c2c1 (centres unmarked) [P-0266, 3-cyclopentyl-3-[6-(3,5-dimethylisoxazol-4-yl)-3-[1-(2,2,2-trifluoroethyl)pyrazol-4-yl]pyrrolo[3,2-b]pyridin-1-vl]propanenitrile] | < 1 | < 10000 | < 1 | < 1 |
| Cc1noc(C)c1-c1cnc2c(-c3cnn(CC(F)(F)F)c3)c[nH]c2c1 [P-0265, 3,5-dimethyl-4-[3-[1-(2,2,2-trifluoroethyl)pyrazol-4-yl]-1H-pyrrolo[3,2-b]pyridin-6-yl]isoxazole] | < 1 | < 10000 | < 1 | < 1 |
| Cc1noc(C)c1-c1cnc2c(Cl)cn(C(CC#N)C3CCCC3)c2c1 (centres unmarked) [P-0290, 3-[3-chloro-6-(3,5-dimethylisoxazol-4-yl)pyrrolo[3,2-b]pyridin-1-yl]-3-cyclopentyl-propanenitrile] | < 1 | < 10000 | < 1 | < 1 |
| Cc1noc(C)c1-c1cnc2c(-c3ccc(O)nc3)cn(C(C)c3ccccc3)c2c1 (centres unmarked) [P-0270, 5-[6-(3,5-dimethylisoxazol-4-yl)-1-(1-phenylethyl)pyrrolo[3,2-b]pyridin-3-yl]pyridin-2-ol] | < 1 | < 10000 | < 1 | < 1 |
| Cc1noc(C)c1-c1cnc2c(-c3cnn(C4COC4)c3)cn(CC3CCC(F)(F)CC3)c2c1 [P-0295, 4-[1-[(4,4-difluorocyclohexyl)methyl]-3-[1-(oxetan-3-yl)pyrazol-4-yl]pyrrolo[3,2-b]pyridin-6-yl]-3,5-dimethyl-isoxazole] | < 1 | < 10000 | < 1 | < 1 |
| Cc1noc(C)c1-c1cnc2c(I)cn(CC3CC(F)(F)C3)c2c1 [P-0303, 4-[1-[(3,3-difluorocyclobutyl)methyl]-3-iodo-pyrrolo[3,2-b]pyridin-6-yl]-3,5-dimethyl-isoxazole] | < 1 | < 10000 | < 1 | < 1 |
| Cc1noc(C)c1-c1cnc2c(-c3cnn(C)c3)cn(Cc3ncccn3)c2c1 [P-0325, 3,5-dimethyl-4-[3-(1-methylpyrazol-4-yl)-1-(pyrimidin-2-ylmethyl)pyrrolo[3,2-b]pyridin-6-yl]isoxazole] | < 1 | < 10000 | < 1 | < 1 |
| COc1ccc(-c2cnc3ccn(CC4CCC(F)(F)CC4)c3c2)cn1 [P-0312, 1-((4,4-difluorocyclohexyl)methyl]-6-(6-methoxy-3-pyridyl)pyrrolo[3,2-b]pyridine] | 10 to 200 | < 10000 | 10 to 200 | 1 to 10 |
